Structures are written as SMILES.

The first experiment deals with recombinant human Nav1.7 (Homo sapiens (Human), UniProt Q15858). Nature of the experiment: FRET-based membrane potential assay, recombinant human sodium channel Nav1.7. It is filed as cell-based. The following applies: HEK293 cells stably expressing recombinant human Nav1.7; veratridine + scorpion venom depolarization; read-out: FRET-Membrane Potential Nav1.7 IC50. In short, it runs like this: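 Channel activation used veratridine at its EC80, set by a dilution curve each experiment, together with Leiurus scorpion venom, added 3 min after compound. Membrane-potential ratio signals from FLIPR Tetra in HEPES-buffered HBSS were fitted to a four-parameter Hill equation for percent inhibition and IC50.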
Sequence of recombinant human Nav1.7 (Q15858 whole entry): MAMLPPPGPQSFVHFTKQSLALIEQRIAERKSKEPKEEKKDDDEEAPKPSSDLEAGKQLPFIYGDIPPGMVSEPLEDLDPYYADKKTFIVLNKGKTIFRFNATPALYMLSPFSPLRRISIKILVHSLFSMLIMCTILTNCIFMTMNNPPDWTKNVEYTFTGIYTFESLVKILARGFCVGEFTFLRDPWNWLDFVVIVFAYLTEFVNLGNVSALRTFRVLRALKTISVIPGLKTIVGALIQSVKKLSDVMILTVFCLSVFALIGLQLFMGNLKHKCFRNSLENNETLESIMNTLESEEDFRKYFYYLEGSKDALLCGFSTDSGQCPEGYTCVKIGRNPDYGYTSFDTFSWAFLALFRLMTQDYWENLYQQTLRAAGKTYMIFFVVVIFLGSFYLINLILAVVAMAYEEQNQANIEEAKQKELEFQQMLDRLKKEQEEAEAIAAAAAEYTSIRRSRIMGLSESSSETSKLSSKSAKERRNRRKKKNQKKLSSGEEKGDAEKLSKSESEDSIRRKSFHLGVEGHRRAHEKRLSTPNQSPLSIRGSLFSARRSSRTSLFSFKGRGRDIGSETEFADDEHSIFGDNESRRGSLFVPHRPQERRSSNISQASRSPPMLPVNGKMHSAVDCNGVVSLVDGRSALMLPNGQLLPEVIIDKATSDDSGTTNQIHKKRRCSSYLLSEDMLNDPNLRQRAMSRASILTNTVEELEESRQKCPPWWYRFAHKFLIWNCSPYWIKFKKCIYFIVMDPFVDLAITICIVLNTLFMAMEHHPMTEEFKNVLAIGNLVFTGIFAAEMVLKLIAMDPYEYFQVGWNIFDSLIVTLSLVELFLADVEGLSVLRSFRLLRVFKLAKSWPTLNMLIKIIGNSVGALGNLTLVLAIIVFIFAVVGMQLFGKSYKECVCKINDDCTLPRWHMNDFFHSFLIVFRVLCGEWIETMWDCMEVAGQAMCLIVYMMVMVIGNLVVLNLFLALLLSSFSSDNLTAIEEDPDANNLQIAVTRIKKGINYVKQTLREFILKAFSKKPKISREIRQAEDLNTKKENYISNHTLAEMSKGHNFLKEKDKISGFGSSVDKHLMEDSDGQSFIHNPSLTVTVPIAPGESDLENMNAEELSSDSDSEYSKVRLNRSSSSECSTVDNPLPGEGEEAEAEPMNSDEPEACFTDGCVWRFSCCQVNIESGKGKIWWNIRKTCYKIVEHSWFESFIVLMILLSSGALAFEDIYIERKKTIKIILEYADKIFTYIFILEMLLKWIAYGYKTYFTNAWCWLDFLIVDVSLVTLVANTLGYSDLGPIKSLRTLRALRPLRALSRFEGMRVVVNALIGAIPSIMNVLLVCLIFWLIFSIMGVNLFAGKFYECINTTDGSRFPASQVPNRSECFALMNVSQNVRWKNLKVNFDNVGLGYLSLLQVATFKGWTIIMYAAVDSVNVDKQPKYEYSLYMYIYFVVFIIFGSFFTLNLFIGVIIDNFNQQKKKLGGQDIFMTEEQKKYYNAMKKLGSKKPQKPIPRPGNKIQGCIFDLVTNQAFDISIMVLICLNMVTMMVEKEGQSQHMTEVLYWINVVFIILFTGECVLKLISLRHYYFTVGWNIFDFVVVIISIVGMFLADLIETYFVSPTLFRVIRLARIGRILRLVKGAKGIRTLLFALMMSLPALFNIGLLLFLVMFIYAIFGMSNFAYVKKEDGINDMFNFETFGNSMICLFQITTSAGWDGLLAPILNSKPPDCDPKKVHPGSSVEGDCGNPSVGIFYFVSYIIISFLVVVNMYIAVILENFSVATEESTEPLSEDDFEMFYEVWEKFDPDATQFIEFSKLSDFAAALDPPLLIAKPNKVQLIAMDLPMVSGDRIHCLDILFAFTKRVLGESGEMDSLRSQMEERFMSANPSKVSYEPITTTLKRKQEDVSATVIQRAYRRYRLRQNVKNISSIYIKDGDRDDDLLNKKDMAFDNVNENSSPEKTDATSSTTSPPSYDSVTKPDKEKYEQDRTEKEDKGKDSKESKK
With `O=C(NC1CC(F)(F)C1)c1ccc2cc(Oc3ccc(C(F)(F)F)nc3)ccc2n1` [Example 555, N-(3,3-difluorocyclobutyl)-6-{[6-(trifluoromethyl)pyridin-3-yl]oxy}quinoline-2-carboxamide], the IC50 is 2.7 µM.

With `CC1(O)CCN(C(=O)CNC(=O)c2ccc3cc(Oc4ccc(C(F)(F)F)cn4)ccc3n2)C1` (centres unmarked) [Example 561, N-[2-(3-hydroxy-3-methylpyrrolidin-1-yl)-2-oxoethyl]-6-{[5-(trifluoromethyl)pyridin-2-yl]oxy}quinoline-2-carboxamide], the half-maximal inhibitory concentration (IC50) was found to be 3.47 µM. The same measure, in the same setting: under `O=C(NCC(=O)N1C[C@H](O)[C@@H](O)C1)c1ccc2cc(Oc3ccc(C(F)(F)F)cn3)ccc2n1` [Example 562, N-{2-[(3S,4S)-3,4-dihydroxypyrrolidin-1-yl]-2-oxoethyl}-6-{[5-(trifluoromethyl)pyridin-2-yl]oxy}quinoline-2-carboxamide] stands above 20 µM; under `O=C(NCC(=O)N1C[C@@H](O)[C@H](O)C1)c1ccc2cc(Oc3ccc(C(F)(F)F)cn3)ccc2n1` [Example 563, N-{2-[(3R,4R)-3,4-dihydroxypyrrolidin-1-yl]-2-oxoethyl}-6-{[5-(trifluoromethyl)pyridin-2-yl]oxy}quinoline-2-carboxamide], above 20 µM. Turning to `O=C(NCC(=O)N1C[C@H](O)C[C@H]1CO)c1ccc2cc(Oc3ccc(C(F)(F)F)cn3)ccc2n1` [Example 564, N-{2-[(2S,4R)-4-hydroxy-2-(hydroxymethyl)pyrrolidin-1-yl]-2-oxoethyl}-6-{[5-(trifluoromethyl)pyridin-2-yl]oxy}quinoline-2-carboxamide], the half-inhibitory concentration (IC50) was 16.6 µM.

For `O=C(NCC(=O)N1CCC(F)(F)C1)c1ccc2cc(Oc3ccc(C(F)(F)F)cn3)ccc2n1` [Example 565, N-[2-(3,3-difluoropyrrolidin-1-yl)-2-oxoethyl]-6-{[5-(trifluoromethyl)pyridin-2-yl]oxy}quinoline-2-carboxamide], the IC50 was 3.43 µM. Take `O=C(NCC(=O)N1CCS(=O)(=O)C1)c1ccc2cc(Oc3ccc(C(F)(F)F)cn3)ccc2n1` [Example 568, N-[2-(1,1-dioxido-1,3-thiazolidin-3-yl)-2-oxoethyl]-6-{[5-(trifluoromethyl)pyridin-2-yl]oxy}quinoline-2-carboxamide]: the IC50 amounted to 3.26 µM.

`COC1CN(C(=O)CNC(=O)c2ccc3cc(Oc4ccc(C(F)(F)F)cn4)ccc3n2)C1` [Example 569, N-[2-(3-methoxyazetidin-1-yl)-2-oxoethyl]-6-{[5-(trifluoromethyl)pyridin-2-yl]oxy}quinoline-2-carboxamide]: the 50% inhibitory concentration (IC50) was found to be 1.21 µM. Consider `O=C(NCC(=O)N1CCC[C@@H]1CO)c1ccc2cc(Oc3ccc(C(F)(F)F)cn3)ccc2n1` [Example 570, N-{2-[(2R)-2-(hydroxymethyl)pyrrolidin-1-yl]-2-oxoethyl}-6-{[5-(trifluoromethyl)pyridin-2-yl]oxy}quinoline-2-carboxamide], for which the IC50 was found to be 0.977 µM.

Take `O=C1CCN(C(=O)CNC(=O)c2ccc3cc(Oc4ccc(C(F)(F)F)cn4)ccc3n2)C1` [Example 572, N-[2-oxo-2-(3-oxopyrrolidin-1-yl)ethyl]-6-{[5-(trifluoromethyl)pyridin-2-yl]oxy}quinoline-2-carboxamide]: the concentration for half-maximal inhibition (IC50) was 2.7 µM. `O=C(NCC(=O)N1CCC(F)C1)c1ccc2cc(Oc3ccc(C(F)(F)F)cn3)ccc2n1` (centres unmarked) [Example 573, N-[2-(3-fluoropyrrolidin-1-yl)-2-oxoethyl]-6-{[5-(trifluoromethyl)pyridin-2-yl]oxy}quinoline-2-carboxamide]: the 50% inhibitory concentration (IC50) was found to be 0.987 µM. As to `O=C(NC1CC(N2CCOCC2)C1)c1ccc2cc(Oc3ccc(C(F)(F)F)nc3)ccc2n1` (centres unmarked) [Example 574, N-[3-(morpholin-4-yl)cyclobutyl]-6-{[6-(trifluoromethyl)pyridin-3-yl]oxy}quinoline-2-carboxamide], the 50% inhibitory concentration (IC50) amounted to 0.295 µM.

For `O=C(c1ccc2cc(Oc3ccc(C(F)F)cn3)ccc2n1)N1CC[C@@H](F)C1` [Example 575, (6-{[5-(difluoromethyl)pyridin-2-yl]oxy}quinolin-2-yl) [(3R)-3-fluoropyrrolidin-1-yl]methanone], the IC50 worked out at 12.1 µM. `O=C(c1ccc2cc(Oc3ccc(C(F)F)cn3)ccc2n1)N1CC[C@H](F)C1` [Example 576, (6-{[5-(difluoromethyl)pyridin-2-yl]oxy}quinolin-2-yl) [(3S)-3-fluoropyrrolidin-1-yl]methanone]: the IC50 stood at 10.1 µM.

Turning to `CS(=O)(=O)NC(=O)c1ccc2cc(Oc3ccc(C(F)(F)F)cn3)ccc2n1` [Example 577, N-(methylsulfonyl)-6-{[5-(trifluoromethyl)pyridin-2-yl]oxy}quinoline-2-carboxamide], the 50% inhibitory concentration (IC50) stood at 10.1 µM. For the compound `CC1(O)CC(NC(=O)c2ccc3cc(Oc4ccc(C(F)(F)F)nc4)ccc3n2)C1` (centres unmarked) [Example 578, N-(3-hydroxy-3-methylcyclobutyl)-6-{[6-(trifluoromethyl)pyridin-3-yl]oxy}quinoline-2-carboxamide], the IC50 is 1.07 µM. Turning to `CC(NC(=O)c1ccc2cc(Oc3ccc(C(F)(F)F)cn3)ccc2n1)C(=O)N(C)C` (centres unmarked) [Example 579, N-[1-(dimethylamino)-1-oxopropan-2-yl]-6-{[5-(trifluoromethyl)pyridin-2-yl]oxy}quinoline-2-carboxamide], the IC50 is 1.69 µM. `O=C(N[C@@H]1CCNC[C@H]1F)c1ccc2cc(Oc3ccc(C(F)(F)F)cn3)ccc2n1` [Example 584, N-[(3R,4R)-3-fluoropiperidin-4-yl]-6-{[5-(trifluoromethyl)pyridin-2-yl]oxy}quinoline-2-carboxamide]: the IC50 is 0.304 µM. Regarding `O=C(c1ccc2cc(Oc3ccc(C(F)F)cn3)ccc2n1)N1CCN[C@H](CO)C1` [Example 585, (6-{[5-(difluoromethyl)pyridin-2-yl]oxy}quinolin-2-yl) [(3S)-3-(hydroxymethyl)piperazin-1-yl]methanone], the concentration for half-maximal inhibition (IC50) is above 20 µM.

Regarding `CN1CCC(NC(=O)c2ccc3cc(Oc4ccc(C(F)(F)F)cn4)ccc3n2)C1=O` (centres unmarked) [Example 587, N-(1-methyl-2-oxopyrrolidin-3-yl)-6-{[5-(trifluoromethyl)pyridin-2-yl]oxy}quinoline-2-carboxamide], the 50% inhibitory concentration (IC50) stood at 1.02 µM.

Still in this experiment, the particulars now being: read-out: FRET-Membrane Potential Nav1.7 IC50.
Regarding `O=C1CC(NC(=O)c2ccc3cc(Oc4ccc(C(F)(F)F)nc4)ccc3n2)C1` [Example 556, N-(3-oxocyclobutyl)-6-{[6-(trifluoromethyl)pyridin-3-yl]oxy}quinoline-2-carboxamide], the half-maximal inhibitory concentration (IC50) stood at 2.81 µM. In the case of `O=C(c1ccc2cc(Oc3ccc(C(F)(F)F)cn3)ccc2n1)N1CC(N2CCNCC2)C1` [Example 557, [3-(piperazin-1-yl)azetidin-1-yl](6-{[5-(trifluoromethyl)pyridin-2-yl]oxy}quinolin-2-yl)methanone], the IC50 is 16.7 µM.

Regarding `O=C(c1ccc2cc(Oc3ccc(C(F)F)cn3)ccc2n1)N1CCNC2(CC2)C1` [Example 558, 4,7-diazaspiro[2.5]oct-7-yl(6-{[5-(difluoromethyl)pyridin-2-yl]oxy}quinolin-2-yl)methanone], the 50% inhibitory concentration (IC50) is 4.49 µM.

As for `O=C(NCC(=O)N1CC[C@@H](O)C1)c1ccc2cc(Oc3ccc(C(F)(F)F)cn3)ccc2n1` [Example 559, N-{2-[(3R)-3-hydroxypyrrolidin-1-yl]-2-oxoethyl}-6-{[5-(trifluoromethyl)pyridin-2-yl]oxy}quinoline-2-carboxamide], the half-maximal inhibitory concentration (IC50) was determined as 3.02 µM. For `O=C(NCC(=O)N1CC[C@H](O)C1)c1ccc2cc(Oc3ccc(C(F)(F)F)cn3)ccc2n1` [Example 560, N-{2-[(3S)-3-hydroxypyrrolidin-1-yl]-2-oxoethyl}-6-{[5-(trifluoromethyl)pyridin-2-yl]oxy}quinoline-2-carboxamide], the IC50 was found to be 2.87 µM. On to `O=C(NCC(=O)N1CC(O)C1)c1ccc2cc(Oc3ccc(C(F)(F)F)cn3)ccc2n1` [Example 566, N-[2-(3-hydroxyazetidin-1-yl)-2-oxoethyl]-6-{[5-(trifluoromethyl)pyridin-2-yl]oxy}quinoline-2-carboxamide], for which the IC50 is 2.37 µM. Consider `CC1(O)CN(C(=O)CNC(=O)c2ccc3cc(Oc4ccc(C(F)(F)F)cn4)ccc3n2)C1` [Example 567, N-[2-(3-hydroxy-3-methylazetidin-1-yl)-2-oxoethyl]-6-{[5-(trifluoromethyl)pyridin-2-yl]oxy}quinoline-2-carboxamide], for which the 50% inhibitory concentration (IC50) was found to be 3.28 µM. Turning to `O=C(NCC(=O)N1CCC1)c1ccc2cc(Oc3ccc(C(F)(F)F)cn3)ccc2n1` [Example 571, N-[2-(azetidin-1-yl)-2-oxoethyl]-6-{[5-(trifluoromethyl)pyridin-2-yl]oxy}quinoline-2-carboxamide], the IC50 was 0.448 µM.

Take `O=C(c1ccc2cc(Oc3ccc(C(F)(F)F)cn3)ccc2n1)N1CCC[C@@H](O)C1` [Example 581, [(3R)-3-hydroxypiperidin-1-yl](6-{[5-(trifluoromethyl)pyridin-2-yl]oxy}quinolin-2-yl)methanone]: the IC50 was 12.6 µM.

For `O=C(c1ccc2cc(Oc3ccc(C(F)(F)F)cn3)ccc2n1)N1CCC[C@H](O)C1` [Example 582, [(3S)-3-hydroxypiperidin-1-yl](6-{[5-(trifluoromethyl)pyridin-2-yl]oxy}quinolin-2-yl)methanone], the IC50 was 10.3 µM. In the case of `N[C@@H]1CCN(C(=O)c2ccc3cc(Oc4ccc(C(F)(F)F)cn4)ccc3n2)C[C@H]1F` [Example 583, [(3R,4R)-4-amino-3-fluoropiperidin-1-yl](6-{[5-(trifluoromethyl)pyridin-2-yl]oxy}quinolin-2-yl)methanone], the IC50 was found to be 0.96 µM.

For `O=C(c1ccc2cc(Oc3ccc(C(F)(F)F)cn3)ccc2n1)N1CC(N2CC[C@H](F)C2)C1` [Example 586, {3-[(3S)-3-fluoropyrrolidin-1-yl]azetidin-1-yl}(6-{[5-(trifluoromethyl)pyridin-2-yl]oxy}quinolin-2-yl)methanone], the concentration for half-maximal inhibition (IC50) amounted to 1.8 µM.

One may read the IC50 as the concentration at which inhibition is half-maximal.
